Here are results for 3 compounds from patent US20220106595A1, “ANTIBACTERIAL ANTISENSE AGENTS” (priority 2018, published 2022).

Data set [1] can be described thus: Log D determination (shake-flask, PBS/1-octanol). The data set is classed as physicochemical. The following applies: PBS pH 7.4 / 1-octanol. Here is the method:
(v) Log D Determinations:
Log D(PBS) determinations is performed in 96 well microtitre plates using a miniaturised “shake-flask” method. […] The plates are then capped and mixed vigorously for 1 hour on a microtitre plate shaker, after which they were left to stand, allowing the PBS and octanol phases to separate.
Where AUCstd and AUCpbs are the peak areas from the standard and test ion chromatograms respectively.

Another data set has as its system E. coli (ATCC25922). Kind of data set: Urinary tract infection mouse model, E. coli (ATCC25922). Format: in vivo. The following applies: 48 h post treatment. The method, then:
Efficacy of PED-011 Against E. coli (ATCC25922) in the Urinary Tract Infection Mouse Model
Female BALB/c mice were infected trans-ureth rally with ˜ 5×10^8 CFU/animal E. coli (ATCC 25922). Four hours post infection animals were treated twice daily (Q12 h) orally with ciprofloxacin at 30 mg/kg and with single IV doses of PED-011 at 10 and 30 mg/kg (u.i.d). Ten animals from each group were terminated at 48 h post treatment, bladder and kidneys were collected to determine the bacterial load.
The vehicle for Ciprofloxacin was 0.25% of Carboxy Methyl Cellulose (CMC) (w/v) and PBS was used for PED-011. PED-011 was dissolved in PBS at 2 & 6 mg/mL. At four hours post infection, animals were treated with the first oral dose of ciprofloxacin and the single dose of PED-011 (10 and 30 mg/kg, IV, single bolus dose, 5 ml/kg dose volume). Animals received further doses of oral ciprofloxacin as per the dosing schedule.

The test system of data set [2] is E. coli (CFT073, ATCC®700928™). Kind of data set: Urinary tract infection mouse model, uropathogenic E. coli (CFT073, ATCC 700928). Format: in vivo. The method, then:
Efficacy of PED-011 Against E. coli (CFT073, ATCC®700928™) in the Urinary Tract Infection Mouse Model; Challenge with a Uropathogenic Strain
Female BALB/c mice were infected trans-urethrally with ˜5×10^8 CFU/animal E. coli (CFT073, ATCC®700928™). Twenty-four hours post infection animals were treated twice daily (Q12 h) orally with ciprofloxacin at 30 mg/kg and with single IV doses of PED-011 at 3, 10 and 30 mg/kg (u.i.d). Ten animals from each group were terminated at 48 h post treatment (72 h post infection); bladder and kidneys were collected to determine the bacterial load.
The vehicle for Ciprofloxacin was 0.25% of Carboxy Methyl Cellulose (CMC) (w/v) and PBS was used for PED-011. PED-011 was dissolved in PBS at 0.6, 2 & 6 mg/mL. At twenty-four hours post infection, animals were treated with the first oral dose of ciprofloxacin and the single dose of PED-011 (10 and 30 mg/kg, IV, single bolus dose, 5 ml/kg dose volume). Animals received further doses of oral ciprofloxacin as per the dosing schedule.

A further data set deals with E. coli (ATCC BAA-2340). Kind of data set: Urinary tract infection mouse model, resistance strain E. coli (ATCC BAA-2340). The data set is classed as in vivo. The following applies: 48 h post treatment. The method, then: Efficacy of PED-011 Against E. coli (ATCC BAA-2340) in the Urinary Tract Infection Mouse Model; Challenge with a Resistance Strain
Female BALB/c mice were infected trans-urethrally with ˜5×10^8 CFU/animal E. coli (ATCC BAA-2340). Twenty-four hours post infection animals were treated twice daily (Q12 h) orally with ciprofloxacin at 30 mg/kg and with single IV doses of PED-011 at 10 and 30 mg/kg (u.i.d). Ten animals from each group were terminated at 48 h post treatment; bladder and kidneys were collected to determine the bacterial load.
The vehicle for Ciprofloxacin was 0.25% of Carboxy Methyl Cellulose (CMC) (w/v) and PBS was used for PED-011. PED-011 was dissolved in PBS at 2 & 6 mg/mL. At twenty-four hour post infection, animals were be treated with the first oral dose of ciprofloxacin and the single dose of PED-011 (10 and 30 mg/kg, IV, single bolus dose, 5 ml/kg dose volume). Animals received further doses of oral ciprofloxacin as per the dosing schedule.

The test system of the next data set is A. baumannii (ATCC19606). In words: Neutropenic lung infection model in mice, A. baumannii (ATCC19606). As to conditions: FIG. 7. The data set is classed as in vivo.

For the compound “PED-011: Linker-6 (Sugar-L-Ala-NH(CH2)3CO) coupled to PMO PED-1, CTT CGA TAG TG (Sequence ID 57, AcpP) (CTTCGATAGTG; all phosphorodiamidate morpholino (PMO); Linker-6 sugar-L-Ala conjugate attached, position not given here, further chemistry not fully specified)”, the “Log D7.4” value in data set [1] was 0.74. Moreover, the “antibacterial activity in bladder vs 4 h and vehicle control” value in the data set on E. coli (ATCC25922) (10 mg/kg, IV, single dose, FIG. 1) is listed as “not significantly effective”; with E. coli (ATCC BAA-2340) (10 mg/kg, IV, single dose, FIG. 5), “not significantly effective”. In addition, the “antibacterial activity in kidneys vs 4 h PI control and vehicle control” value was “significant antibacterial activity” in the data set with E. coli (ATCC25922) (10 mg/kg, IV, single dose, p<0.05, FIG. 2); “significant antibacterial activity” in the data set on E. coli (ATCC25922) (30 mg/kg, IV, single dose, p<0.05, FIG. 2); “significant antibacterial activity” in the data set with E. coli (ATCC BAA-2340) (10 mg/kg, IV, single dose, p<0.05, FIG. 6). Also, in the data set with E. coli (ATCC25922) (30 mg/kg, IV, single dose, p<0.05, FIG. 1), the “antibacterial activity in bladder vs 4 h PI control and vehicle control” value is reported as “significant antibacterial activity”. The “antibacterial effect in kidney compared to vehicle control” value in data set [2] (30 mg/kg, IV, 1 dose, p<0.05, FIG. 4) was “significant effect”; in data set [2] (3, 10 and 30 mg/kg, IV, 1 dose, FIG. 4) it was “dose dependent antibacterial effect”. In addition, the “mean bacterial counts in bladder” value in data set [2] (3, 10 and 30 mg/kg, IV, 1 dose, FIG. 3) was “dose dependent mean reduction in bacterial counts”. Further, the “antibacterial effect in bladder wrt vehicle control” value in data set [2] (3, 10 and 30 mg/kg, IV, 1 dose, p>0.05, FIG. 3) is “did not show significant antibacterial effect”. Besides, in the data set with E. coli (ATCC BAA-2340) (30 mg/kg, IV, single dose, FIG. 5), the “antibacterial activity in bladder vs 24 h PI control and vehicle control” value is reported as “a reduction but not statistically significant antibacterial activity”. Moreover, in the data set on E. coli (ATCC BAA-2340) (30 mg/kg, IV, single dose, p<0.05, FIG. 6), the “antibacterial activity in kidneys vs 24 h PI control and vehicle control” value is recorded as “significant antibacterial activity”.
“PED-012: Linker-6 coupled to PMO PED-2, TCA AAT GAG GC (Sequence ID 91, ftsZ) (TCAAATGAGGC; all phosphorodiamidate morpholino (PMO); Linker-6 conjugate attached at 3' morpholino end, 5' end group not given here, further chemistry not fully specified)”: the “antibacterial activity in lung vs vehicle control at 52 h PI” value in the data set with A. baumannii (ATCC19606) (10 mg/kg, IN, single dose, p>0.05) is listed as “not significantly effective”. Also, the “antibacterial activity in lung vs 52 h vehicle control” value in the data set with A. baumannii (ATCC19606) (30 mg/kg, IN, single dose, p<0.05) is “significant antibacterial activity”.
Take `O=C(O)c1cn(C2CC2)c2cc(N3CCNCC3)c(F)cc2c1=O` [Ciprofloxacin, reference compound]: in the data set with E. coli (ATCC25922) (30 mg/kg, p.o., Q12 h, p<0.05, FIG. 1), the “antibacterial effect in bladder (Log10 CFU/g) vs 4 h control and vehicle control” value is listed as “significant antibacterial effect”. For the same compound, the “antibacterial effect in kidneys (Log10 CFU/g) vs 4 h control and vehicle control” value in the data set with E. coli (ATCC25922) (30 mg/kg, p.o., Q12 h, p<0.05, FIG. 2) is on record as “significant antibacterial effect”. The “bactericidal activity in bladder wrt 24 h PI control and vehicle control” value in data set [2] (30 mg/kg, p.o., b.i.d. Q12h, 72 h post infection, FIG. 3) is “significant (p<0.05) bactericidal activity”. Besides, the “bactericidal activity in kidney wrt 24 h PI control and vehicle control” value in data set [2] (30 mg/kg, p.o., b.i.d. Q12h, 72 h post infection, p<0.05, FIG. 4) is given as “significant bactericidal activity”. Besides, in the data set with E. coli (ATCC BAA-2340) (30 mg/kg, p.o., Q12 h, p<0.05, FIG. 5), the “antibacterial effect in bladder vs 24 h control and vehicle control” value is given as “significant antibacterial effect”. Moreover, in the data set on E. coli (ATCC BAA-2340) (30 mg/kg, p.o., Q12 h, p<0.05, FIG. 6), the “antibacterial effect in kidneys vs 24 h control and vehicle control” value is reported as “significant antibacterial effect”. In addition, in the data set on A. baumannii (ATCC19606) (10 mg/kg, po, Q12 h, p<0.05), the “antibacterial effect in lung vs 52 h vehicle control” value is given as “significant antibacterial effect”.
